Values of other authors, collected in article PMC11185183 (PNAS Nexus, 2024).

System: GC-B

## CN(C)CCN1CCCC(C(=O)Nc2nc3c(F)cc(F)cc3s2)C1 (stereo not shown) [MCUF-651]
  action on GC-B: lacked any action
